Consider 3 molecules from ChEMBL document CHEMBL1152511, “Structural basis for alpha-conotoxin potency and selectivity” (Bioorg Med Chem, 2009).

For experiment [1], the target named is Neuronal acetylcholine receptor; alpha3/beta2 (Homo sapiens, UniProt P17787+P32297). The experiment in a line: Inhibition of alpha3beta2 nAChR. The format is protein-complex assay.
The target in experiment [2] is Neuronal acetylcholine receptor; alpha6/beta2 (Homo sapiens, UniProt P17787+Q15825). The experiment in a line: Inhibition of alpha6beta2 nAChR. The format is protein-complex assay.
Experiment [3] can be described thus: Selectivity ratio of IC50 for alpha6beta2 nAChR to IC50 for alpha3beta2 nAChR.
A short description of experiment [4]: Selectivity for alpha3beta2 nAChR over alpha6beta2 nAChR.

pIC50: −log10 of the molar value. Residues, ends and D or L forms follow the SMILES beside them.

Sequence of Neuronal acetylcholine receptor; alpha3/beta2 (P17787 whole entry): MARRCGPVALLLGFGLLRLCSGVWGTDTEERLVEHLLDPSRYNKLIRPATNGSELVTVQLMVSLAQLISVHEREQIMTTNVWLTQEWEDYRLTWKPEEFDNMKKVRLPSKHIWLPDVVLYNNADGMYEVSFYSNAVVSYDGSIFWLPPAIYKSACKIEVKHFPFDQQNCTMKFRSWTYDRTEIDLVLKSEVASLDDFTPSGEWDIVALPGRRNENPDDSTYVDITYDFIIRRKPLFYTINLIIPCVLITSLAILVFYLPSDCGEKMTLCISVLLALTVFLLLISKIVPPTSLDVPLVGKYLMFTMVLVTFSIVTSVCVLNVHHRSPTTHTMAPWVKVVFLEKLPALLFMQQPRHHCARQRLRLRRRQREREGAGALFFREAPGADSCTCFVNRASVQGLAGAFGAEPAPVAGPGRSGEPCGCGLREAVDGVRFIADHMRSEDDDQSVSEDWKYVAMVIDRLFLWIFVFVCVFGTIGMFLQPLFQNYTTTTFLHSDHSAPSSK
Sequence of Neuronal acetylcholine receptor; alpha3/beta2 (P32297 whole entry): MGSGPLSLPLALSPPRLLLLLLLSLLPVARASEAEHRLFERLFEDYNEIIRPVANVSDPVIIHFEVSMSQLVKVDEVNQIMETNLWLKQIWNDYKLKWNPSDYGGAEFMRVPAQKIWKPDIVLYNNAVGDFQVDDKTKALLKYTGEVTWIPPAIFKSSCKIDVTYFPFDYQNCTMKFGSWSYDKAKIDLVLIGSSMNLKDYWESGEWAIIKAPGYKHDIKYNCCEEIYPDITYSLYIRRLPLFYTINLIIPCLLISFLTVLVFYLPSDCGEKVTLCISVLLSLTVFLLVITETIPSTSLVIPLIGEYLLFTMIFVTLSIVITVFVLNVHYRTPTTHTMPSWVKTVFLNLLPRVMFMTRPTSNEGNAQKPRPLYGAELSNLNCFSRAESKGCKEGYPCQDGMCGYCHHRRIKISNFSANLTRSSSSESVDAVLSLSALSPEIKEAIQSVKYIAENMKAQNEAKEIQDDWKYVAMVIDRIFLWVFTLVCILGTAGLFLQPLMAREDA
Sequence of Neuronal acetylcholine receptor; alpha6/beta2 (P17787 whole entry): as the sequence (P17787 whole entry) above
Sequence of Neuronal acetylcholine receptor; alpha6/beta2 (Q15825 whole entry): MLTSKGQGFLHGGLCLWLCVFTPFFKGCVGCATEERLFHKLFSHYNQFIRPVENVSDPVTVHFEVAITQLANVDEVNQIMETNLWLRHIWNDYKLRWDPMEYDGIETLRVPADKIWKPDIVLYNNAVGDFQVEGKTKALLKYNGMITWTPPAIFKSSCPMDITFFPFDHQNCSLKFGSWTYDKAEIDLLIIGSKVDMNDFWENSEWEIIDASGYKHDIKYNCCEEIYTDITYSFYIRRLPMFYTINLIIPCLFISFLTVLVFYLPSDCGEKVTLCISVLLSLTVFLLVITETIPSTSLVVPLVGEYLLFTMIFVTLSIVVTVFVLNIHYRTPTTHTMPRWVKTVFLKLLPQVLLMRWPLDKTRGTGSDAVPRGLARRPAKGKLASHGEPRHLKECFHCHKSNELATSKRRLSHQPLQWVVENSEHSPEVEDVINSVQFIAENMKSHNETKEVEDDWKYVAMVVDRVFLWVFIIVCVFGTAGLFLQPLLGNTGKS

In the case of `CC[C@H](C)[C@H](NC(=O)[C@H](CS)NC(=O)[C@@H]1CCCN1C(=O)[C@@H]1CCCN1C(=O)[C@H](CCCNC(=N)N)NC(=O)[C@H](CO)NC(=O)[C@H](CS)NC(=O)[C@H](CS)NC(=O)CN)C(=O)N[C@@H](C)C(=O)N[C@@H](CC(N)=O)C(=O)N[C@@H](CC(N)=O)C(=O)N1CCC[C@H]1C(=O)N[C@@H](CC(=O)O)C(=O)N[C@@H](CC(C)C)C(=O)N[C@@H](CS)C(=O)O`, the pIC50 (usually the negative decadic logarithm of the IC50, by convention in mol/L) in experiment [1] was 8.46.
As for `CC[C@H](C)[C@H](NC(=O)[C@H](Cc1cnc[nH]1)NC(=O)[C@@H]1CCCN1C(=O)[C@H](CC(N)=O)NC(=O)[C@H](CC(N)=O)NC(=O)[C@@H](NC(=O)[C@H](CC(N)=O)NC(=O)[C@H](CS)NC(=O)[C@H](C)NC(=O)[C@@H]1CCCN1C(=O)[C@H](Cc1cnc[nH]1)NC(=O)[C@H](CO)NC(=O)[C@H](CS)NC(=O)[C@H](CS)NC(=O)CN)C(C)C)C(=O)N[C@@H](CS)C(=O)NCC(=O)O` (H-GCCSHPACNVNNPHICG-OH), the negative-log IC50 (pIC50) in experiment [2] is 6.70; in experiment [1], 7.96. For the same molecule, the Ratio IC50 in experiment [3] was found to be 0.0547. The Selectivity ratio in experiment [4] came out at 20.
`CC(C)C[C@H](NC(=O)[C@@H](NC(=O)[C@H](C)NC(=O)[C@H](CS)NC(=O)[C@@H]1CCCN1C(=O)[C@@H]1CCCN1C(=O)[C@@H](NC(=O)[C@H](CO)NC(=O)[C@H](CS)NC(=O)[C@H](CS)NC(=O)CN)[C@@H](C)O)C(C)C)C(=O)N[C@@H](Cc1ccc(O)cc1)C(=O)N[C@@H](CS)C(=O)O` (H-GCCSTPPCAVLYC-OH): the figures for the negative logarithm of the IC50 (pIC50) in experiment [2] and in experiment [1] were 9.59 and 8.24, respectively. Besides, the Ratio IC50 in experiment [3] was 22. Besides, the Selectivity ratio in experiment [4] is 20.
